Tested on: maximal (tonic hindlimb extension) electroshock seizures in male rats (Sprague Dawley)
Assay: Rat MEST (maximal electroshock seizure threshold) test
Assay type: in vivo
Conditions: 2 mg/kg p.o., suspension in methyl cellulose, one hour post dosing, statistically significant
Procedure: The maximal electroshock seizure (MEST) threshold test in rodents is particularly sensitive for detecting potential anticonvulsant properties ^1. In this model, anticonvulsant agents elevate the threshold to electrically-induced seizures whilst proconvulsants lower the seizure threshold.
The threshold for maximal (tonic hindlimb extension) electroshock seizures in male rats (Sprague Dawley, 80-150 g, 6 weeks old) was determined by a Hugo Sachs Electronik stimulator which delivered a constant current (0.3 sec duration; from 1-300mA in steps of 5-20mA). The procedure is similar to that outlined above for mouse and full details are as published by Upton et al.^4
The percentage increase or decrease in CC50 for each group compared to the control is calculated.
Drugs are suspended in 1% methyl cellulose.

SMILES | increase in seizure threshold
COc1cc(C(C)C)c(C#N)cc1C(=O)Nc1cccc2c1CCN(C)C2.Cl [Example 10, N-(2-Methyl-1,2,3,4-tetrahydroisoquinolin-5-yl)-5-cyano-2-methoxy-4-iso-propylbenzamide, hydrochloride] | 152%
CCOc1cc(C(C)C)c(C(F)(F)F)cc1C(=O)Nc1cccc2c1CCN(C)C2 [Example 11, N-(2-Methyl-1,2,3,4-tetrahydroisoquinolin-5-yl)-2-ethoxy-4-iso-propyl-5-trifluoromethylbenzamide] | 92%
CCOc1cc(C(C)C)c(C#N)cc1C(=O)Nc1cccc2c1CCN(C)C2.Cl [Example 16, N-(2-Methyl-1,2,3,4-tetrahydroisoquinolin-5-yl)-5-cyano-2-ethoxy-4-iso-propylbenzamide, hydrochloride] | 336%
CCOc1cc(OC)c(C(=O)Nc2cccc3c2CCN(C)C3)cc1Br [Example 17, N-(2-Methyl-1,2,3,4-tetrahydroisoquinolin-5-yl)-5-bromo-4-ethoxy-2-methoxybenzamide] | 403%
COc1cc(OC)c(C(=O)Nc2cccc3c2CCN(C)C3)cc1C#N.Cl [Example 23, N-(2-Methyl-1,2,3,4-tetrahydroisoquinolin-5-yl)-2,4-dimethoxy-5-cyanobenzamide, hydrochloride] | 107%
